Patent US20240286998A1, “F[…], ANALOGUES THEREOF, AND METHODS USING SAME” (Saint Joseph's University, priority 2021, published 2024)
Counter-ions that a name gives are not always drawn. Like-named read-outs stand apart in the source and are kept apart here.

How the values were obtained:
C57BL/6J mice = test: Head-Twitch Response (HTR) in mice; format: in vivo; conditions: for HTR counts over baseline / induction of HTR: compared to vehicle; for Duration of HTR above baseline: C57BL/6J mice, ascending and descending arm dose; for ED50: Mus musculus, ip, 0.5 h
Description: Male C57BL/6J mice (6-8 weeks old) were obtained from Jackson Laboratories (Bar Harbor, ME) and housed in a vivarium at the University of California San Diego, an AAALAC-approved animal facility that meets all federal and state requirements for care and treatment of laboratory animals. All animal experiments were carried out in accordance with NIH guidelines and were approved by the UCSD Institutional Animal Care and Use Committee. Mice were housed up to four per cage in a climate-controlled room on a reverse-light cycle (lights on at 1900 h, off at 0700 h). Animals were provided with ad libitum access to food and water, with the exception of during behavioral testing.
Testing was conducted between 1000 and 1800 h. Head movements were recorded using a head-mounted magnet and a magnetometer coil as described in Halberstadt et al. (Psychopharmacology, 2013, 227(4):727-739). For the head mounted magnet, mice were anesthetized, an incision was made in the scalp, and a neodymium magnet was attached to the dorsal surface of the cranium using dental cement. Following a 2-week recovery period, behavioral experiments were conducted in a well-lit room. At least 7 days occurred between sessions to avoid any carryover effects. Test substances (i.e., dimethyltryptamine (DMT), diethyltryptamine (DET), psilocybin, 6-fluoro-diethyltryptamine (6-F-DET), compounds 3-4, 6, 9, 12-13, 22, 33, 41, 69, 88, 166, and 178) were administered intraperitoneally (IP) at a volume of 5 mL/kg. Mice were treated with vehicle (saline) or 6 doses of the test compound and then placed in a glass cylinder surrounded by a magnetometer coil and tested for 30 min. Coil voltage was filtered (1 kHz lowpass), digitized (20 kHz sampling rate) and saved to disk using a Powerlab/8SP with LabChart v 7.3.2 (ADInstruments, Colorado Springs, CO).
The entire 30 min recordings were examined for head twitches. Established procedures based on artificial intelligence were used to identify head twitches in the recordings (Scientific Reports, 2020, 10(1):1-12). HTR counts were analyzed using one-way analyses of variance (ANOVA), followed by post hoc pairwise comparisons between individual groups and vehicle using Dunnett's multiple comparisons test. […] Median effective doses (ED50 values) and 95% confidence intervals (95% CI) were calculated using nonlinear regression (Prism 9.0.2, GraphPad Software, San Diego, CA) (Table 4 and FIGS. 1-3).

5-HT2A = 5-HT2A (Homo sapiens (Human), UniProt P28223); test: 5-HT2A Gq-mediated calcium flux functional assay; format: cell-based
5-HT2B = 5-HT2B (Homo sapiens (Human), UniProt P41595); test: 5-HT2B Gq-mediated calcium flux functional assay; format: cell-based
Sequence of 5-HT2B (P41595 whole entry): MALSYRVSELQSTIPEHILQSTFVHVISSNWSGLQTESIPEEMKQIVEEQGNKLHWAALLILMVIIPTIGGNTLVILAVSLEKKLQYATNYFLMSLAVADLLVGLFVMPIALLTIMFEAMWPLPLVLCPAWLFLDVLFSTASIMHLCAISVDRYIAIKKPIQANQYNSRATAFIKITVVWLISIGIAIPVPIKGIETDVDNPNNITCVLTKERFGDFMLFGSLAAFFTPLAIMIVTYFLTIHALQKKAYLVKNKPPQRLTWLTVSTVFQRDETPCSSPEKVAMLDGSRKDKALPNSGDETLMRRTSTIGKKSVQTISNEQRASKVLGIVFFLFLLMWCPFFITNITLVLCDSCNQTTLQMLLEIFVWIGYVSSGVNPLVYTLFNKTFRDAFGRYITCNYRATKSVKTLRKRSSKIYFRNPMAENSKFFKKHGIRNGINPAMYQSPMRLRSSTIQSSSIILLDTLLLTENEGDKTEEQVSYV

5-HT1A = 5-HT1A (Homo sapiens (Human), UniProt P08908); test: 5-HT1A Gi/o-mediated cAMP inhibition, GloSensor assay; format: cell-based; conditions: for 5-HT1A-cAMP Emax (% 5-HT): cAMP inhibition, 0.2 μM isoproterenol, IA = Inactive
Serotonin 5-HT2A (human) = Serotonin 5-HT2A (human) (Homo sapiens (Human), UniProt P28223); test: 5-HT2A receptor binding, [3H]-ketanserin competition in membrane fractions; conditions: 1 nM [3H]-ketanserin, Cheng-Prusoff, N=1-3
5-HT2C = 5-HT2C (Homo sapiens (Human), UniProt P28335); test: 5-HT2C Gq-mediated calcium flux functional assay; format: cell-based
Sequence of 5-HT2C (P28335 whole entry, looked up): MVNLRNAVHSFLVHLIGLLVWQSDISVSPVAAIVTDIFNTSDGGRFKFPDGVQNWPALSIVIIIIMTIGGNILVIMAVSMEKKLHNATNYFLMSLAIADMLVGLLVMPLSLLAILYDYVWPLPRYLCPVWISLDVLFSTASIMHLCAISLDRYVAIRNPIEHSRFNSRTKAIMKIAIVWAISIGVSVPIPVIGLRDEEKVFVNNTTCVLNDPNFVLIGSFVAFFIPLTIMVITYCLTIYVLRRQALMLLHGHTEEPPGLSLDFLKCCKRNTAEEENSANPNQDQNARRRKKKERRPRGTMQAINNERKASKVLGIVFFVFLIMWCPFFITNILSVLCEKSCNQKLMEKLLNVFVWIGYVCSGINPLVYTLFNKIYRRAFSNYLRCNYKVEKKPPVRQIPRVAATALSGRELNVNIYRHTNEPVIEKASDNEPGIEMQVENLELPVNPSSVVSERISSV

[1] = IA = Inactive, N=1-3, read-out: 5-HT2A-Ca2+ FLUX pEC50 (converted)
[2] = IA = Inactive, N=1-3, read-out: 5-HT2B-Ca2+ FLUX pEC50 (converted)
[3] = IA = Inactive, N=1-3, read-out: 5-HT2C-Ca2+ FLUX pEC50 (converted)
[4] = read-out: HTR ED50 μmol/kg (95% CI)
[5] = read-out: HTR ED50 mg/kg (95% CI)

SMILES | melting point | 5-HT2A-Ca2+ FLUX Emax (% 5-HT) (5-HT2A; IA = Inactive, N=1-3) | EC50 (5-HT1A) | 5-HT1A-cAMP Emax (% 5-HT) (5-HT1A) | 5-HT2A pKi ± SEM (Serotonin 5-HT2A (human)) | 5-HT2C-Ca2+ FLUX Emax (% 5-HT) (5-HT2C; IA = Inactive, N=1-3) | other results
CC(C)N(CCc1c[nH]c2ccc(F)cc12)C1CCC1 (as salt: hydrochloride) [compound 40, N-(2-(5-fluoro-1H-indol-3-yl)ethyl)-N-isopropylcyclobutanamine] | 191.6 to 193 °C |  |  |  |  |  | 
CCN(C)CCc1c[nH]c2c(F)cc(F)cc12 (as salt: hydrochloride) [compound 69, 2-(5,7-difluoro-1H-indol-3-yl)-N-ethyl-N-methylethan-1-amine] | 152.7 to 153.5 °C |  |  |  |  |  | 
CN(CCc1c[nH]c2ccc(F)cc12)C1CC1 (as salt: hydrochloride) [compound 160, N-(2-(5-fluoro-1H-indol-3-yl)ethyl)-N-methylcyclopropanamine] | 218.8 to 219.3 °C |  |  |  |  |  | 
CCCN(CCc1c[nH]c2c(F)cccc12)C1CCC1 (as salt: hydrochloride) [compound 162, N-(2-(7-fluoro-1H-indol-3-yl)ethyl)-N-propylcyclobutanamine] | 231.7 to 237.2 °C |  |  |  |  |  | 
CCCN(CC)CCc1c[nH]c2c(F)c(F)c(F)cc12 (as salt: hydrochloride) [compound 165, N-ethyl-N-[2-(5,6,7-trifluoro-1H-indol-3-yl)ethyl]propan-1-amine] | 188 to 188.8 °C |  |  |  |  |  | 
C=CCN(CCC)CCc1c[nH]c2ccc(F)cc12 (as salt: salt) [compound 35, N-(2-(5-fluoro-1H-indol-3-yl)ethyl)-N-propylprop-2-en-1-amine] | 175.1 to 177.2 °C |  |  |  |  |  | 
CCN(CC)CCc1c[nH]c2cc(F)ccc12 [6-F-DET, 6-fluoro-N,N-diethyltryptamine, reference compound] |  |  |  |  |  |  | HTR counts over baseline / induction of HTR (C57BL/6J mice): inactive
CN(C)CCc1c[nH]c2ccccc12 [DMT, dimethyl tryptamine, reference compound] |  |  |  |  |  |  | Duration of HTR above baseline (C57BL/6J mice): about 10 minutes
CCN(CCc1c[nH]c2ccc(F)cc12)C(C)C [Example 1, N-ethyl-N-(2-(5-fluoro-1H-indol-3-yl)ethyl)propan-2-amine] | 77.1 to 78.1 °C | 102.6 ± 0.8 % 5-HT | 589 nM | 86.4 ± 2.6 % 5-HT | 5.95 ± 0.07 | 107.6 ± 2.3 % 5-HT | EC50 (5-HT2A): 1.35 nM; EC50 (5-HT2B): 1.32 nM; 5-HT2B-Ca2+ FLUX Emax (% 5-HT) (5-HT2B; IA = Inactive, N=1-3): 100.0 ± 0.6 % 5-HT; EC50 (5-HT2C): 6.61 nM
CCN(CC)CCc1c[nH]c2cccc(F)c12 [Example 8, N,N-diethyl-2-(4-fluoro-1H-indol-3-yl)ethan-1-amine] |  |  |  |  | 6.09 |  | HTR counts over baseline / induction of HTR (C57BL/6J mice): inactive
CN1CCC(c2c[nH]c3ccc(F)cc23)C1 (stereo not drawn) [compound 15, 5-fluoro-3-(1-methylpyrrolidin-3-yl)-1H-indole] | 122.8 to 125.1 °C |  |  |  | 6.98 |  | 
CN1CCC(c2c[nH]c3cc(F)c(F)cc23)C1 (stereo not drawn) [compound 19, 5,6-difluoro-3-(1-methylpyrrolidin-3-yl)-1H-indole] | 119.5 to 120.3 °C | 53.3 ± 3.6 % 5-HT | 2950 nM | 113.3 ± 4.0 % 5-HT | 6.92 | 70.5 ± 2.3 % 5-HT | EC50 (5-HT2A; [1]): 3.89 nM; 5-HT2B-Ca2+ FLUX Emax (% 5-HT) (5-HT2B; IA = Inactive, N=1-3): 32.2 ± 2.2 % 5-HT; EC50 (5-HT2B; [2]): 1.51 nM; EC50 (5-HT2C; [3]): 3.63 nM
CN1CCC(c2c[nH]c3c(F)cccc23)C1 (stereo not drawn) [compound 23, 7-fluoro-3-(1-methylpyrrolidin-3-yl)-1H-indole] | 129 to 132.1 °C | 41.8 ± 1.6 % 5-HT | 22.4 nM | 99.2 ± 1.7 % 5-HT | 6.43 | 26.6 ± 1.1 % 5-HT | EC50 (5-HT2A; [1]): 8.51 nM; 5-HT2B-Ca2+ FLUX Emax (% 5-HT) (5-HT2B; IA = Inactive, N=1-3): 19.7 ± 0.8 % 5-HT; EC50 (5-HT2B; [2]): 4.37 nM; EC50 (5-HT2C; [3]): 20.9 nM
CCCN(CC)CC(=O)c1c[nH]c2ccc(F)cc12 [compound 24, 2-(ethyl(propyl)amino)-1-(5-fluoro-1H-indol-3-yl)ethan-1-one] | 203.4 to 205.6 °C | 81.0 ± 2.4 % 5-HT | 0.49 nM | 20.5 ± 1.4 % 5-HT |  |  | EC50 (5-HT2A; [1]): 1410 nM
CN1CCC[C@H]1Cc1c[nH]c2ccc(F)cc12 [compound 27, (S)-5-fluoro-3-((1-methylpyrrolidin-2-yl)methyl)-1H-indole] | 135 to 136.4 °C | 34.4 ± 2.3 % 5-HT | 562 nM | 88.2 ± 3.6 % 5-HT | 5.57 | 18.5 ± 0.7 % 5-HT | EC50 (5-HT2A): 58.9 nM; EC50 (5-HT2B): 14.1 nM; 5-HT2B-Ca2+ FLUX Emax (% 5-HT) (5-HT2B; IA = Inactive, N=1-3): 35.3 ± 1.3 % 5-HT; EC50 (5-HT2C): 56.2 nM
CN1CCC[C@@H]1Cc1c[nH]c2ccc(F)cc12 [compound 28, (R)-5-fluoro-3-((1-methylpyrrolidin-2-yl)methyl)-1H-indole] | 127.6 to 131.7 °C | 91.1 ± 2.5 % 5-HT | 72.4 nM | 101.20 ± 1.7 % 5-HT | 7.19 ± 0.03 | 92.8 ± 0.9 % 5-HT | EC50 (5-HT2A): 2.34 nM; EC50 (5-HT2B): 0.724 nM; 5-HT2B-Ca2+ FLUX Emax (% 5-HT) (5-HT2B; IA = Inactive, N=1-3): 90.8 ± 1.1 % 5-HT; EC50 (5-HT2C): 1.74 nM
CN1CC(c2c[nH]c3ccc(F)cc23)C1 [compound 29, 5-fluoro-3-(1-methylazetidin-3-yl)-1H-indole] | 119 to 122.8 °C |  | 851 nM | 64.0 ± 3.5 % 5-HT | 6.30 | 28.5 ± 0.8 % 5-HT | EC50 (5-HT2C; [3]): 49 nM
CCN(CCc1c[nH]c2ccc(F)cc12)C1CCC1 [compound 31, N-ethyl-N-(2-(5-fluoro-1H-indol-3-yl)ethyl)cyclobutanamine] | 89.4 to 90.3 °C | 104.5 ± 1.8 % 5-HT | 22.4 nM | 100.7 ± 1.8 % 5-HT | 6.26 ± 0.32 | 98.0 ± 1.9 % 5-HT | EC50 (5-HT2A): 2.04 nM; EC50 (5-HT2B): 2.51 nM; 5-HT2B-Ca2+ FLUX Emax (% 5-HT) (5-HT2B; IA = Inactive, N=1-3): 96.5 ± 1.4 % 5-HT; EC50 (5-HT2C): 57.5 nM
CCCN(CC)CCc1c[nH]c2c(F)cc(OC)cc12 [compound 41, N-ethyl-N-(2-(7-fluoro-5-methoxy-1H-indol-3-yl)ethyl)propan-1-amine] |  |  |  |  | 6.15 ± 0.34 |  | ED50 (C57BL/6J mice; [4]): 3.56 µmol/kg; ED50 (C57BL/6J mice; [5]): 1.12 mg/kg
CN(CCc1c[nH]c2ccc(F)cc12)C1CCC1 [compound 51, N-(2-(5-fluoro-1H-indol-3-yl)ethyl)-N-methylcyclobutanamine] | 219.4 to 219.7 °C |  |  |  | 6.80 ± 0.02 |  | 
CCN(C)CCc1c[nH]c2c(F)cc(F)cc12 [compound 69, 2-(5,7-difluoro-1H-indol-3-yl)-N-ethyl-N-methylethan-1-amine] |  |  |  |  | 6.90 ± 0.002 |  | ED50 (C57BL/6J mice; [4]): 4.81 µmol/kg; ED50 (C57BL/6J mice; [5]): 1.32 mg/kg
CCN(C)CCc1c[nH]c2c(F)c(F)c(F)cc12 [compound 164, N-ethyl-N-methyl-2-(5,6,7-trifluoro-1H-indol-3-yl)ethan-1-amine] | 212.1 to 212.5 °C | 76.1 ± 1.1 % 5-HT |  |  | 6.90 ± 0.13 | 89.3 ± 1.3 % 5-HT | EC50 (5-HT2A): 6.46 nM; EC50 (5-HT2B): 6.17 nM; 5-HT2B-Ca2+ FLUX Emax (% 5-HT) (5-HT2B; IA = Inactive, N=1-3): 33.2 ± 0.9 % 5-HT; EC50 (5-HT2C): 18.6 nM
CC(C)N(CCc1c[nH]c2ccc(F)cc12)C1CC1 [compound 168, N-(2-(5-fluoro-1H-indol-3-yl)ethyl)-N-isopropylcyclopropanamine] | 196.4 to 196.8 °C |  |  |  | 6.18 |  | 
CN(C)CCc1c[nH]c2cccc(O)c12 [psilocin, reference compound] |  |  |  |  |  |  | Duration of HTR above baseline (C57BL/6J mice): about 35 minutes
